Experimental data from patent US20120148586A1, “GLUCAGON-LIKE PROTEIN-1 RECEPTOR (GLP-1R) AGONISTS FOR TREATING AUTOIMMUNE DISORDERS” (priority 2009, published 2012).

Columns and labels:
[1] = system: lymphocytes, monocytes, CD4+, CD8+, CD19+ and Ter119+ cells; test: immune cell populations in EAE animals by FACS; assay type: in vivo, mice; conditions: spleen, day 5; exendin-4 1 mg/kg or dexamethasone 4 mg/kg daily
thymocytes = test: CD4, CD8 double positive thymocytes in naïve and EAE animals (Table 5); assay type: in vivo, mice; conditions: exendin-4 1 mg/kg or dexamethasone 4 mg/kg, day 6
Excerpt: EAE was induced in 8 week old C57B1/6 mice by subcutaneous injections of MOG/CFA followed by i.p. injection of pertussis toxin. […] Dexamethasone is known to cause T cell death. On day 6 after immunization, thymi were harvested. Thymocytes were isolated, stained with anti-CD4 and anti-CD8 antibodies and analyzed by flow cytometry.

[2] = system: IL-17+ and IFN-γ+ cells (Th17 and Th1); test: IL-17+ and IFN-γ+ CD4 cells in inguinal lymph nodes by FACS; assay type: in vivo, mice; conditions: inguinal lymph node; exendin-4 1 mg/kg or dexamethasone 4 mg/kg daily; day 5 or 7
GLP-1 levels = test: blood GLP1 levels in EAE mice at day 5 after immunization; assay type: in vivo; conditions: 10 mg/kg once daily, vs methylcellulose
Excerpt: (§1) At day 5 after immunization, blood samples were taken for measurement of GLP1 levels. […] To monitor disease progression, animals were scored daily for morbidity as follows: 0=normal; 1=limp tail; 2=moderate hind limb weakness; 3=moderately severe hind limb weakness (animal can still walk with difficulty); 4=severe hind limb weakness (animal can move its hind limbs but cannot walk); 5=complete hind limb paralysis; and 6=death.

glucose and GLP-1 levels = test: oral glucose tolerance test; assay type: in vivo, mice; conditions: vs methylcellulose
Excerpt: GLP-1 is degraded in vivo by dipeptidyl peptidase-4 (DPP-4). DPP-4 inhibitors include, for example without limitation, sitagliptin, vildagliptin, saxagliptin, linagliptin, dutogliptin, gemigliptin, alogliptin and berberine. To test whether the DPP-4 inhibitor sitagliptin can prevent glucose level increases and elevated GLP-1 levels, four groups of 12 month old male C57BI/6 mice (n=4-5) were fasted overnight and subjected to an oral glucose tolerance test the following morning. One hour prior to oral glucose challenge, test animals were orally dosed with either 1 mg/kg or 10 mg/kg sitagliptin. […] After oral glucose challenge, glucose levels were test at 20, 40, 60 and 120 minutes. Blood samples were also taken at 20 minutes after glucose challenge to check glucose and GLP-1 levels.

[3] = system: EAE in MOG (35-55) immunized C57BL/6 mice; test: EAE clinical score (morbidity) after MOG (35-55) immunization; assay type: in vivo
Protocol: EAE was induced in female C57BL/6 mice by s.c. injection of 200 μg of the encephalitogenic peptide MOG (35-55) emulsified in CFA (Difco) and supplemented with 4 mg/ml of M. tuberculosis (Difco) on experiment day 0, followed immediately and again after 48 hours by 400 ng of pertussis toxin injected i.v.
Animals were scored for morbidity as follows: 0=normal; 1=limp tail; 2=moderate hind limb weakness; 3=moderately severe hind limb weakness (animal can still walk with difficulty); 4=severe hind limb weakness (animal can move its hind limbs but cannot walk); 5=complete hind limb paralysis; and 6=death.
Another group of mice were treated on a weekly basis with 1mg/kg GAC-1 (n=10). The mice were assessed daily for clinical signs of EAE according to the following scale: 0=normal; 1=limp tail; 2=moderate hind-limb weakness; 3=moderately severe hind-limb weakness (animal can still walk); 4=severe hind-limb weakness (animal can move their hind-limbs but cannot walk); 5=complete hind limb paralysis; 6=death.
In a separate experiment, EAE was induced as described above. […] A second group of animals were treated with 3 mg/kg GAC-1 on day 0 after MOG immunization, followed by weekly treatments of 1 mg/kg GAC-1 starting on day 7 after immunization. A third group of animals were treated daily with PBS (control, n=10). Clinical scores were monitored daily following criteria described above.
as §1

Row | SMILES | reduction of Ter119+ cells in EAE animals [1] | % CD4, CD8 double positive cells (thymocytes; EAE mice) | % CD4, CD8 double positive cells (thymocytes; Naïve mice) | reduction of IL-17+ cells in EAE animals [2] | GLP-1 levels at day 5 after immunization (GLP-1 levels) | glucose levels after oral glucose challenge (glucose and GLP-1 levels; 1 mg/kg or 10 mg/kg oral, not statistically significant by two-way ANOVA) | blood GLP-1 levels 20 minutes after oral glucose challenge (glucose and GLP-1 levels; either dose (1 mg/kg or 10 mg/kg oral)) | disease score from day 18 to day 20 ([3]; 10 mg/kg once daily, vs methylcellulose) | morbidity (EAE clinical score) ([3]; once daily day 0 to day 28, exendin-4 1 mg/kg, sitagliptin 1 or 10 mg/kg, vs methylcellulose, FIG. 18) | EAE progression / disease symptoms ([3]; once daily day 0 to day 28, exendin-4 1 mg/kg, sitagliptin either 1 mg/kg or 10 mg/kg, FIG. 18)
1 | C[C@@H]1C[C@H]2[C@@H]3CCC4=CC(=O)C=C[C@]4(C)[C@@]3(F)[C@@H](O)C[C@]2(C)[C@@]1(O)C(=O)CO [dexamethasone] | 20-25% | 1.5±0.5% | 12.4±3.3% | 50% | – | – | – | – | – | –
2 | N[C@@H](CC(=O)N1CCn2c(nnc2C(F)(F)F)C1)Cc1cc(F)c(F)cc1F [sitagliptin] | – | – | – | – | significantly higher GLP-1 levels | trend toward lower glucose levels | significantly increased blood GLP-1 levels | significantly lower | significantly reduced morbidity | trend towards attenuating disease symptoms
